The source of these data is ChEMBL document CHEMBL5346863, “Discovery of substituted benzyloxy-benzylamine inhibitors of acetyltransferase Eis and their anti-mycobacterial activity” (Eur J Med Chem, 2022).

Broadly, the MIC is the lowest concentration found to suppress growth. By IC50 is commonly meant the concentration that inhibits the measured activity by half. A higher IC50 goes with lower potency. The term Ki denotes the equilibrium dissociation constant of an inhibitor or competing ligand from its target.

Molecules are shown by their SMILES. ≈ marks a conversion by molar mass, not a printed value. Calls of active or inactive are those of the source. The rule behind the calls is not given here.

The test system of data set [1] is Mycobacterium tuberculosis. As to the kind of experiment: Antibacterial activity against Mycobacterium tuberculosis H37Ra assessed as bacterial growth inhibition incubated 2 to 3 weeks by resazurin dye based assay. The class given is functional. To be noted: time 2-3 weeks. On the technique in general: Alamar Blue is a resazurin reagent that responds to reducing activity.

Data set [2] addresses T1, N-acetyltransferase Eis (Mycobacterium tuberculosis (strain ATCC 25618 / H37Rv), UniProt P9WFK7).
T1 sequence (P9WFK7 whole entry): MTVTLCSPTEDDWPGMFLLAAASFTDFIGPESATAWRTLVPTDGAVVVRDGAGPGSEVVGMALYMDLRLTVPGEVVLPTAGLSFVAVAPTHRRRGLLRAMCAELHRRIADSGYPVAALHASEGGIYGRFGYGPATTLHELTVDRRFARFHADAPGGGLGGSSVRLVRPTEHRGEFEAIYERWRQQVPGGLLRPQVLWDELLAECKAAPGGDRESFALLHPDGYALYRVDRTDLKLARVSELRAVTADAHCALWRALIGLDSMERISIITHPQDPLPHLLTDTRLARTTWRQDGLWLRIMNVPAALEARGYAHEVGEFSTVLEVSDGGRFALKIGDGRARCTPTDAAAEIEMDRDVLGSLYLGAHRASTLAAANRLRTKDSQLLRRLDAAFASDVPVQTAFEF
As to the kind of experiment: Inhibition of wild-type Mycobacterium tuberculosis Eis expressed in Escherichia coli BL21(DE3) cells incubated for 5 mins by Ellman's method.

For data set [3], the system named is Mycobacteroides abscessus. Nature of the data set: Antibacterial activity against Mycobacterium abscessus ATCC 19977 assessed as bacterial growth inhibition incubated for 2 to 3 weeks by resazurin dye based assay. To be noted: time 2-3 weeks. The class given is functional.
In data set [4] the test system is Mycobacterium tuberculosis. As to the kind of experiment: Antibacterial activity against Mycobacterium tuberculosis K204 assessed as MIC of kanamycin A at 54.8 uM incubated for 24 hrs followed by kanamycin A addition measured after 6 days by alamarblue dye based assay. The class given is functional, organism-based. To be noted: time 7.0 day.
The test system of data set [5] is Mycobacterium intracellulare. As to the kind of experiment: Antibacterial activity against Mycobacterium intracellulare ATCC 13950 assessed as bacterial growth inhibition incubated for 2 to 3 weeks by resazurin dye based assay. The class given is functional. As to conditions: time 2-3 weeks.
The test system of another data set is Mycobacterium avium. Nature of the data set: Antibacterial activity against Mycobacterium avium ATCC 25291 assessed as bacterial growth inhibition incubated for 2 to 3 weeks by resazurin dye based assay. To be noted: time 2-3 weeks. The format is functional.
Data set [6] deals with Mycobacterium tuberculosis. As to the kind of experiment: Antibacterial activity against Mycobacterium tuberculosis H37Rv assessed as MIC of kanamycin A at 54.8 uM incubated for 24 hrs followed by kanamycin A addition measured after 6 days by alamarblue dye based assay. The format is functional, organism-based. As to conditions: time 7.0 day.
Data set [7] relates to Mycobacterium tuberculosis. Nature of the data set: Antibacterial activity against Mycobacterium tuberculosis mc2 6230 assessed as bacterial growth inhibition incubated 2 to 3 weeks by resazurin dye based assay. The format is functional. As to conditions: time 2-3 weeks.
Data set [8] concerns Mycobacterium tuberculosis. As to the kind of experiment: Antibacterial activity against Mycobacterium tuberculosis H37Rv assessed as MIC of kanamycin A at 100 uM incubated for 24 hrs followed by kanamycin A addition measured after 6 days by alamarblue dye based assay. The class given is functional. As to conditions: time 7.0 day.
In data set [9] the test system is Mycobacterium tuberculosis. As to the kind of experiment: Antibacterial activity against Mycobacterium tuberculosis mc2 6230 assessed as MIC of kanamycin A at 50 uM incubated for 24 hrs followed by kanamycin A addition measured after 6 days by alamarblue dye based assay. The format is functional. As to conditions: mc2 6230, 168 h, time 7 day.
In data set [10] the target is T1, N-acetyltransferase Eis. Nature of the data set: Binding affinity to wild-type Mycobacterium tuberculosis Eis expressed in Escherichia coli BL21(DE3) cells assessed as inhibition constant incubated for 5 mins by Ellman's method based Michaelis-Menten analysis. Background: Ellman's reagent forms a yellow product with free thiols.
The test system of data set [11] is Mycobacterium tuberculosis. As to the kind of experiment: Antibacterial activity against Mycobacterium tuberculosis mc2 6230 K204 assessed as MIC of kanamycin A at 50 uM incubated for 24 hrs followed by kanamycin A addition measured after 6 days by alamarblue dye based assay. As to conditions: mc2 6230 K204, 168 h, time 7 day. The format is functional.
Data set [12] relates to Mycobacterium tuberculosis. Nature of the data set: Antibacterial activity against Mycobacterium tuberculosis mc2 6230 K204 assessed as MIC of kanamycin A at 25 uM incubated for 24 hrs followed by kanamycin A addition measured after 6 days by alamarblue dye based assay. The class given is functional. As to conditions: Mycobacterium tuberculosis, mc2 6230 K204, 168 h, time 7 day, read-out: MIC.

For data set [13], the system named is Mycolicibacterium smegmatis. As to the kind of experiment: Antibacterial activity against Mycobacterium smegmatis mc2 122 assessed as bacterial growth inhibition incubated for 2 to 3 weeks by resazurin dye based assay. The class given is functional. To be noted: time 2-3 weeks.
The subject of data set [14] is Mycobacterium tuberculosis. As to the kind of experiment: Antibacterial activity against Mycobacterium tuberculosis mc2 6230 assessed as MIC of kanamycin A at 25 uM incubated for 24 hrs followed by kanamycin A addition measured after 6 days by alamarblue dye based assay. To be noted: mc2 6230, 168 h, time 7 day. The format is functional.
For data set [15], the system named is Mycobacterium parascrofulaceum. As to the kind of experiment: Antibacterial activity against Mycobacterium parascrofulaceum ATCC BAA-614 assessed as bacterial growth inhibition incubated for 2 to 3 weeks by resazurin dye based assay. The format is functional. To be noted: time 2-3 weeks.
The next data set has as its system J774.1. Nature of the data set: Cytotoxicity against mouse J774.1 cells upto 12.5 uM incubated for 24 hrs by resazurin dye based cell viability assay. The class given is toxicity. As to conditions: j774.1, 24 h.
The subject of the next data set is A549. Nature of the data set: Cytotoxicity against human A549 cells upto 12.5 uM incubated for 24 hrs by resazurin dye based cell viability assay. The format is toxicity. To be noted: a549, 24 h.
The test system of data set [16] is Mycobacterium tuberculosis. As to the kind of experiment: Antibacterial activity against Mycobacterium tuberculosis H37Rv assessed as MIC of kanamycin A at 95.9 uM incubated for 24 hrs followed by kanamycin A addition measured after 6 days by alamarblue dye based assay. The format is functional, organism-based. To be noted: time 7.0 day.
Another data set deals with HEK293. As to the kind of experiment: Cytotoxicity against HEK293 cells upto 12.5 uM incubated for 24 hrs by resazurin dye based cell viability assay. As to conditions: human, hek293, 24 h. The format is toxicity.
Data set [17] deals with Mycobacterium tuberculosis. Nature of the data set: Antibacterial activity against Mycobacterium tuberculosis K204 assessed as MIC of kanamycin A at 95.9 uM incubated for 24 hrs followed by kanamycin A addition measured after 6 days by alamarblue dye based assay. As to conditions: time 7.0 day. The format is functional, organism-based.
The test system of data set [18] is Mycobacterium tuberculosis. Nature of the data set: Antibacterial activity against Mycobacterium tuberculosis H37Rv assessed as MIC of kanamycin A at 6.3 uM incubated for 24 hrs followed by kanamycin A addition measured after 6 days by alamarblue dye based assay. The class given is functional. As to conditions: 168 h, time 7 day.
Data set [19] relates to Mycobacterium tuberculosis. As to the kind of experiment: Antibacterial activity against Mycobacterium tuberculosis mc2 6230 assessed as bacterial growth inhibition measured after 6 days by alamarblue dye based assay. The class given is functional. To be noted: mc2 6230, 144 h, time 6 day.
Data set [20] relates to Mycobacterium tuberculosis. Nature of the data set: Antibacterial activity against Mycobacterium tuberculosis mc2 6230 K204 assessed as bacterial growth inhibition measured after 6 days by alamarblue dye based assay. The format is functional. As to conditions: mc2 6230 K204, 144 h, time 6 day.
In data set [21] the test system is Mycobacterium tuberculosis. As to the kind of experiment: Antibacterial activity against Mycobacterium tuberculosis H37Rv assessed as bacterial growth inhibition measured after 6 days by alamarblue dye based assay. The class given is functional. To be noted: 144 h, time 6 day.
The subject of data set [22] is Mycobacterium tuberculosis. As to the kind of experiment: Antibacterial activity against Mycobacterium tuberculosis H37Rv assessed as MIC of kanamycin A at 27.5 uM incubated for 24 hrs followed by kanamycin A addition measured after 6 days by alamarblue dye based assay. The format is functional. To be noted: 168 h, time 7 day.

As for `Clc1ccc(COc2cccc(CNCc3ccncc3)c2)cc1`, the MIC is 31.3 µM (≈ 10.6 µg/mL) in [1]; > 62.5 µM in [3]; 31.3 µM (≈ 10.6 µg/mL) in data set [5]; > 62.5 µM in the data set on Mycobacterium avium; 50 µM (≈ 16.9 µg/mL) in [7]. At N-acetyltransferase Eis [2], the IC50 was ~20000 nM. The result in [4], in data set [6] and in data set [8] was Active.
As for `Brc1ccc(COc2ccccc2CNCc2ccccc2)cc1`, the MIC was 31.3 µM (≈ 12 µg/mL) in data set [1]; < 1.25 µM in [9]; 31.3 µM (≈ 12 µg/mL) in data set [5]; > 62.5 µM in the data set with Mycobacterium avium; > 10 µM in data set [11]; 100 µM (≈ 38.2 µg/mL) in [7]. On N-acetyltransferase Eis [2], this compound came in with a half-inhibitory concentration (IC50) of 1300 nM. In addition, the Ki on N-acetyltransferase Eis [10] is 5260 nM. The outcome in data set [8] was Active.
Consider `Brc1cccc(COc2ccc(CNCc3ccccc3)cc2)c1`, for which the MIC in data set [1] is 3.9 µM (≈ 1.49 µg/mL); in data set [3], 31.3 µM (≈ 12 µg/mL); in data set [12], ≤ 1.25 µM; in data set [5], 3.9 µM (≈ 1.49 µg/mL); in the data set on Mycobacterium avium, 31.3 µM (≈ 12 µg/mL); in data set [13], 2 µM (≈ 0.765 µg/mL). The MIC in data set [14] is < 1.25 µM; in data set [15], 2 µM (≈ 0.765 µg/mL); in [7], 50 µM (≈ 19.1 µg/mL). Besides, the IC50 against N-acetyltransferase Eis [2] is 2400 nM.
`Brc1ccc(COc2ccccc2CNCc2cccnc2)cc1`: the IC50 against N-acetyltransferase Eis [2] is ~8000 nM. Further, the MIC in data set [3] was > 62.5 µM; in data set [5] it was > 62.5 µM; in the data set with Mycobacterium avium, > 62.5 µM; in [15] it was > 62.5 µM; in data set [7], 100 µM (≈ 38.3 µg/mL). The Activity result in the data set on J774.1, in the data set with A549 and with HEK293 was “Non-Toxic” throughout. Besides, the outcome in [16], in data set [17] and in [8] was Active.
As to `Clc1ccc(COc2cccc(CNCc3cccnc3)c2)cc1`, the MIC was 15.6 µM (≈ 5.29 µg/mL) in data set [1]; 2.5 µg/mL in data set [18]; 31.3 µM (≈ 10.6 µg/mL) in [5]; > 62.5 µM in the data set on Mycobacterium avium; 31.3 µM (≈ 10.6 µg/mL) in data set [13]; 50 µM (≈ 16.9 µg/mL) in data set [7]. For the same compound, half-maximal inhibition against N-acetyltransferase Eis [2] (IC50) required 2500 nM.
With `NC[C@H]1O[C@H](O[C@H]2[C@H](O)[C@@H](O[C@H]3O[C@H](CO)[C@@H](O)[C@H](N)[C@H]3O)[C@H](N)C[C@@H]2N)[C@H](O)[C@@H](O)[C@@H]1O` [KANAMYCIN], the MIC was < 1.25 µM in data set [19], 320 µM (≈ 155 µg/mL) in data set [20], < 1.25 µM in [7] and 1.25 µg/mL (≈ 2.58 µM) in data set [21].
With `Clc1ccc(COc2ccc(CNCc3cccnc3)cc2)cc1`, the minimal inhibitory concentration (MIC) in [1] was 31.3 µM (≈ 10.6 µg/mL); in data set [3] it was > 62.5 µM; in data set [12], ≤ 1.25 µM; in [5], 15.6 µM (≈ 5.29 µg/mL); with Mycobacterium avium, > 62.5 µM; in data set [14] it was < 1.25 µM. In addition, the minimal inhibitory concentration (MIC) in data set [22] was ≤ 1.25 µg/mL; in data set [7] it was 50 µM (≈ 16.9 µg/mL). Further, the half-maximal inhibitory concentration (IC50) against N-acetyltransferase Eis [2] came out at 2900 nM.
